In paper PMC7808739, “Repurposing existing drugs: identification of SARS-CoV-2 3C-like protease inhibitors” (Journal of Enzyme Inhibition and Medicinal Chemistry, 2021):
Structures can show the parent of a compound that is named as a salt. Where two headings read alike, the source gives them in different places.

Target: SARS-CoV-2 3CLpro (Severe acute respiratory syndrome coronavirus 2, UniProt P0DTD1)
Assay: biochemical
Type: biochemical
Settings: for SARS-CoV-2 3CLpro inhibitor grade in words: grading by IC50 in the IQF peptide assay
[1] = 0.25 µM protease, 1.25 µM IQF peptide substrate, drugs 0–100 µM preincubated 1 h at 37 °C, then 3 h, N = 3, mean ± SEM, read-out: IC50, inhibition of SARS-CoV-2 3CLpro activity
[2] = IC50, inhibition of SARS-CoV-2 3CLpro activity

C=C(c1ccc(C(=O)O)cc1)c1cc2c(cc1C)C(C)(C)CCC2(C)C [Bexarotene]
IC50 [1]: 26.5 µM
SARS-CoV-2 3CLpro inhibitor grade in words: moderate

CC(=O)Oc1ccc(C(c2ccc(OC(C)=O)cc2)c2ccccn2)cc1 [Bisacodyl]
IC50 [2]: 17.5 µM

O=C(O)COCCN1CCN(C(c2ccccc2)c2ccc(Cl)cc2)CC1 (stereo not shown) [Cetirizine]
IC50 [2]: 25.6 µM

CCC(=O)O[C@]1(C(=O)CCl)[C@@H](C)C[C@H]2[C@@H]3CCC4=CC(=O)C=C[C@]4(C)[C@@]3(F)[C@@H](O)C[C@@]21C [Clobetasol propionate]
IC50 [1]: 18.1 µM

CN(Cc1ccc(C(C)(C)C)cc1)Cc1cccc2ccccc12 [Butenafine hydrochloride]
IC50 [2]: 5.4 µM

CC(C)C[C@H](NC(=O)[C@@H](COC(C)(C)C)NC(=O)[C@H](Cc1ccc(O)cc1)NC(=O)[C@H](CO)NC(=O)[C@H](Cc1c[nH]c2ccccc12)NC(=O)[C@H](Cc1cnc[nH]1)NC(=O)[C@@H]1CCC(=O)N1)C(=O)N[C@@H](CCCNC(=N)N)C(=O)N1CCC[C@H]1C(=O)NNC(N)=O [Goserelin acetate]
IC50 [2]: 12 µM

COc1ccc2cc([C@H](C)C(=O)O)ccc2c1 [Naproxen]
IC50 [2]: 3.45 µM

N[C@@H]1C[C@H]1c1ccccc1 [Tranylcypromine hydrochloride]
IC50 [2]: 8.64 µM

Oc1ncnc2[nH]ncc12 [Allopurinol]
IC50 [2]: 3.77 µM

CC(C)(C)NC(=O)[C@@H]1C[C@@H]2CCCC[C@@H]2CN1C[C@@H](O)[C@H](Cc1ccccc1)NC(=O)[C@H](CC(N)=O)NC(=O)c1ccc2ccccc2n1 [Saquinavir mesylate]
IC50 [2]: 9.92 µM

Colistin sulphate
IC50 [1]: 23.2 µM
SARS-CoV-2 3CLpro inhibitor grade in words: moderate

C=CC[N+]1([C@H]2C[C@H]3[C@@H]4CC[C@H]5C[C@H](O)[C@@H](N6CCOCC6)C[C@]5(C)[C@H]4CC[C@]3(C)[C@H]2OC(C)=O)CCCC1 [Rocuronium bromide]
IC50 [1]: 17.5 µM

CO[C@H]1C[C@@H]2CC[C@@H](C)[C@@](O)(O2)C(=O)C(=O)N2CCCC[C@H]2C(=O)O[C@H]([C@H](C)C[C@@H]2CC[C@@H](O)[C@H](OC)C2)CC(=O)[C@H](C)/C=C(\C)[C@@H](O)[C@@H](OC)C(=O)[C@H](C)C[C@H](C)/C=C/C=C/C=C/1C [Sirolimus (Rapamycin), Sirolimus]
IC50 [1]: 22.3 µM

O=C(c1ccc(OCCN2CCCCC2)cc1)c1c(-c2ccc(O)cc2)sc2cc(O)ccc12 [Raloxifene hydrochloride]
IC50 [1]: 5.61 µM

CCCCCCCCCCCCCCCC(=O)O[C@@H]1[C@@H](O)[C@@H](O)[C@@H]([C@H](NC(=O)[C@@H]2C[C@@H](CCC)CN2C)[C@H](C)Cl)O[C@@H]1SC.Cl [Clindamycin palmitate hydrochloride]
IC50 [1]: 33.2 µM
SARS-CoV-2 3CLpro inhibitor grade in words: moderate

NC(=O)C[S@@+]([O-])C(c1ccccc1)c1ccccc1 [Armodafinil]
IC50 [1]: 17.9 µM

C=C(CC)C(=O)c1ccc(OCC(=O)O)c(Cl)c1Cl [Ethacrynic acid]
IC50 [1]: 1.11 µM

COCC1=C(C(=O)OC(C)OC(=O)OC(C)C)N2C(=O)[C@@H](NC(=O)/C(=N\OC)c3csc(N)n3)[C@H]2SC1 (stereo partly shown) [Cefpodoxime proxetil]
IC50 [2]: 32.4 µM
SARS-CoV-2 3CLpro inhibitor grade in words: moderate
